Calls of active or inactive are those of the source. The rule behind the calls is not given here.
What was measured:
KB/V [1] = assay: Reversal of human P-glycoprotein-mediated multidrug resistance in human KB/V cells as reduction of vincristine IC50 at 10 uM; format: cell-based
KB = assay: Cytotoxicity against human KB cells; format: functional, cell-based
KB/V [2] = assay: Partial reversal of human P-glycoprotein-mediated multidrug resistance in human KB/V cells as reduction of vincristine IC50 at 10 uM; format: cell-based
KB/V [3] = assay: Ratio of compound reversal of P-glycoprotein-mediated multidrug resistance to verapamil reversal of P-glycoprotein-mediated multidrug resistance in human KB/V cells; format: cell-based

| Structure (SMILES) | Activity (KB/V [1]) | Activity (KB) | Activity (KB/V [2]) | Ratio (KB/V [3]) |
| --- | --- | --- | --- | --- |
| C=C1[C@@H](OC(=O)Cc2ccccc2)CC[C@@]2(C)C[C@H](OC(C)=O)C3=C(C)CC[C@@H]([C@@H](OC(C)=O)[C@H]12)C3(C)C | inactive | inactive |  |  |
| C=C1[C@@H](OC(=O)c2ccco2)CC[C@@]2(C)C[C@H](OC(C)=O)C3=C(C)C(=O)C[C@@H]([C@@H](OC(C)=O)[C@H]12)C3(C)C |  | inactive | Active |  |
| C=C1[C@@H](OC(=O)Cc2cccc3ccccc23)CC[C@@]2(C)C[C@H](OC(C)=O)C3=C(C)C(=O)C[C@@H]([C@@H](OC(C)=O)[C@H]12)C3(C)C | inactive | inactive |  |  |
| C=C1[C@@H](OC(=O)c2ccco2)CC[C@@]2(C)C[C@H](OC(C)=O)C3=C(C)CC[C@@H]([C@@H](OC(C)=O)[C@H]12)C3(C)C | inactive | inactive |  |  |
| C=C1[C@@H](OC(=O)[C@@H]2CCCN2)CC[C@@]2(C)C[C@H](OC(C)=O)C3=C(C)C(=O)CC([C@@H](OC(C)=O)[C@H]12)C3(C)C (single isomer, unassigned) | Active | inactive |  | 21.2 |
| C=C1[C@@H](OC(=O)CCCc2cccs2)CC[C@@]2(C)C[C@H](OC(C)=O)C3=C(C)C(=O)C[C@@H]([C@@H](OC(C)=O)[C@H]12)C3(C)C |  | inactive | Active |  |
| C=C1[C@@H](OC(=O)c2cccnc2)CC[C@@]2(C)C[C@H](OC(C)=O)C3=C(C)CC[C@@H]([C@@H](OC(C)=O)[C@H]12)C3(C)C |  | inactive | Active |  |
| COc1ccc(CCN(C)CCCC(C#N)(c2ccc(OC)c(OC)c2)C(C)C)cc1OC (stereo not drawn) | inactive | inactive |  |  |
| C=C1[C@@H](OC(=O)CCC2CCCCC2)CC[C@@]2(C)C[C@H](OC(C)=O)C3=C(C)C(=O)C[C@@H]([C@@H](OC(C)=O)[C@H]12)C3(C)C |  | inactive | Active |  |
| C=C1[C@@H](OC(=O)COc2ccc3ccccc3c2)CC[C@@]2(C)C[C@H](OC(C)=O)C3=C(C)C(=O)C[C@@H]([C@@H](OC(C)=O)[C@H]12)C3(C)C | inactive | inactive |  |  |
| C=C1[C@@H](OC(=O)Cc2cc(OC)ccc2OC)CC[C@@]2(C)C[C@H](OC(C)=O)C3=C(C)CC[C@@H]([C@@H](OC(C)=O)[C@H]12)C3(C)C | inactive | inactive |  |  |
| C=C1[C@@H](OC(=O)/C=C\c2ccco2)CC[C@@]2(C)C[C@H](OC(C)=O)C3=C(C)CC[C@@H]([C@@H](OC(C)=O)[C@H]12)C3(C)C | inactive | inactive |  |  |
| C=C1[C@@H](OC(=O)CCC(=O)O)CC[C@@]2(C)C[C@H](OC(C)=O)C3=C(C)CC[C@@H]([C@@H](OC(C)=O)[C@H]12)C3(C)C | inactive | inactive |  |  |
| C=C1[C@@H](OC(=O)Cc2cccs2)CC[C@@]2(C)C[C@H](OC(C)=O)C3=C(C)C(=O)C[C@@H]([C@@H](OC(C)=O)[C@H]12)C3(C)C | inactive | inactive |  |  |
| C=C1[C@@H](OC(=O)CCc2cccs2)CC[C@@]2(C)C[C@H](OC(C)=O)C3=C(C)C(=O)C[C@@H]([C@@H](OC(C)=O)[C@H]12)C3(C)C | inactive | inactive |  |  |
| C=C1[C@@H](OC(=O)CCCCc2ccccc2)CC[C@@]2(C)C[C@H](OC(C)=O)C3=C(C)C(=O)C[C@@H]([C@@H](OC(C)=O)[C@H]12)C3(C)C | inactive | inactive |  |  |
| C=C1[C@@H](OC(=O)CCC2CCCCC2)CC[C@@]2(C)C[C@H](OC(C)=O)C3=C(C)CC[C@@H]([C@@H](OC(C)=O)[C@H]12)C3(C)C | inactive | inactive |  |  |
| C=C1[C@@H](OC(=O)c2cccnc2)CC[C@@]2(C)C[C@H](OC(C)=O)C3=C(C)C(=O)C[C@@H]([C@@H](OC(C)=O)[C@H]12)C3(C)C |  | inactive | Active |  |
| C=C1[C@@H](OC(=O)/C=C/c2ccccc2)CC[C@@]2(C)C[C@H](OC(C)=O)C3=C(C)CC[C@@H]([C@@H](OC(C)=O)[C@H]12)C3(C)C | inactive | inactive |  |  |
| C=C1[C@@H](OC(=O)CCCc2ccccc2)CC[C@@]2(C)C[C@H](OC(C)=O)C3=C(C)CC[C@@H]([C@@H](OC(C)=O)[C@H]12)C3(C)C | inactive | inactive |  |  |
| C=C1[C@@H](OC(=O)Cc2cccs2)CC[C@@]2(C)C[C@H](OC(C)=O)C3=C(C)CC[C@@H]([C@@H](OC(C)=O)[C@H]12)C3(C)C | inactive | inactive |  |  |
| C=C1[C@@H](OC(=O)CCCCc2ccccc2)CC[C@@]2(C)C[C@H](OC(C)=O)C3=C(C)CC[C@@H]([C@@H](OC(C)=O)[C@H]12)C3(C)C |  | inactive | Active |  |
| C=C1[C@@H](OC(=O)/C=C\c2ccco2)CC[C@@]2(C)C[C@H](OC(C)=O)C3=C(C)C(=O)C[C@@H]([C@@H](OC(C)=O)[C@H]12)C3(C)C | Active | inactive |  | 1.67 |
| C=C1[C@@H](OC(=O)CC2CCCCC2)CC[C@@]2(C)C[C@H](OC(C)=O)C3=C(C)C(=O)C[C@@H]([C@@H](OC(C)=O)[C@H]12)C3(C)C | Active | inactive |  | 6.6 |
| C=C1[C@@H](OC(=O)CCc2cccnc2)CC[C@@]2(C)C[C@H](OC(C)=O)C3=C(C)C(=O)C[C@@H]([C@@H](OC(C)=O)[C@H]12)C3(C)C | Active | inactive |  | 1.42 |
| C=C1[C@@H](OC(=O)COc2ccc3ccccc3c2)CC[C@@]2(C)C[C@H](OC(C)=O)C3=C(C)CC[C@@H]([C@@H](OC(C)=O)[C@H]12)C3(C)C |  | inactive | Active |  |
| C=C1[C@@H](OC(=O)CCc2ccccc2)CC[C@@]2(C)C[C@H](OC(C)=O)C3=C(C)CC[C@@H]([C@@H](OC(C)=O)[C@H]12)C3(C)C | inactive | inactive |  |  |
